Data: patent publication US8138175B2, “Heterocyclyl compounds” (Hoffmann-La Roche Inc., priority 2008, dated 2012)

biological target: T1, human chemokine receptor 2 isoform B (Homo sapiens, UniProt P41597); assay: Calcium mobilization assay; assay type: cell-based; settings: Ca mobilization assay for CCR2; CHOK1-CCR2B-A5 cells; antagonist activity against 20 nM MCP-1; FLIPR, Fluo-4
T1 construct: host or cells: CHOK1-CCR2B-A5 (CHO-K1) cells
T1 sequence (P41597 1-360 isoform P41597-2): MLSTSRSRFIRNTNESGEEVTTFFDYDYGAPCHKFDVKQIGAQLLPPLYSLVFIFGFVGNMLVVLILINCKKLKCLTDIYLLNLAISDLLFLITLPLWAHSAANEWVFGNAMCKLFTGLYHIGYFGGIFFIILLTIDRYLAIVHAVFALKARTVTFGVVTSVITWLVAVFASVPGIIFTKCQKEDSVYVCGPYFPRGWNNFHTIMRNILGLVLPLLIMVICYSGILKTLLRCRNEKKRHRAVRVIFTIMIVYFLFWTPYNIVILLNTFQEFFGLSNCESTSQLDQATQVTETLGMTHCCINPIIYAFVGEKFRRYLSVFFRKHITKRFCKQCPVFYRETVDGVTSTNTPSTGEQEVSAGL
Protocol: Calcium Mobilization Assay
CHOK1-CCR2B-A5 cells (from Euroscreen) stably overexpressing the human chemokine receptor 2 isoform B were cultured in Nutrient Hams F12 medium supplemented with 5% FBS, 100 U/ml penicillin, 100 μg/ml streptomycin, 400 μg/ml G418 and 5 μg/ml puromycin.
For the assay cells were grown overnight in 384-well black clear flat bottom polystyrene plates (Costar) at 37° C. at 5% CO2. After washing with DMEM, 20 mM Hepes, 2.5 mM probenecid, 0.1% BSA (DMEM assay buffer) cells were loaded with 4 μM Fluo-4 in the same DMEM assay buffer for 2 hours at 30° C. Excess dye was removed and cells were washed with DMEM assay buffer. 384-well compound plates were prepared with DMEM assay buffer/0.5% dimethyl sulfoxide with or without various concentrations of test compounds. Usually compounds were tested for agonist and antagonist activity.
Test compounds were added to the assay plate and agonist activity was monitored as fluorescence for 80 seconds with a FLIPR (488 nm excitation; 510-570 nm emission; Molecular Devices). After 20-30 min. of incubation at 30° C., 20 nM MCP-1 (R&D; Roche) was added and fluorescence was monitored again for 80 seconds. Increases in intracellular calcium are reported as maximum fluorescence after agonist exposure minus basal fluorescence before exposure. Antagonist activity is indicated as inhibitor concentration required for 50% inhibition of specific calcium increases.

| SMILES | IC50 [µM] |
| --- | --- |
| O=C1CCN(c2cccc(C(F)(F)F)c2)CCN1C(CO)CCCN1CCC2(CC2)[C@H](O)C1 (stereo partly drawn) [Example 27, 4-[(R,S)-4-((S)-4-Hydroxy-6-aza-spiro[2.5]oct-6-yl)-1-hydroxymethyl-butyl]-1-(3-trifluoromethyl-phenyl)-[1,4]diazepan-5-one] | 0.07 |
| COC(=O)[C@H](CCN1C[C@@H](C)C[C@H](O)C1)N1CCN(c2cccc(C(F)(F)F)c2)CCC1=O [Example 7, (S)-4-((3S,5S)-3-Hydroxy-5-methyl-piperidin-1-yl)-2-[7-oxo-4-(3-trifluoromethyl-phenyl)-[1,4]diazepan-1-yl]-butyric acid methyl ester] | 0.09 |
| CC1C(=O)N(CCCN2CCC3(CC3)[C@H](O)C2)CCN1c1cccc(-c2ccccc2)c1 (stereo partly drawn) [Example 90, 4-Biphenyl-3-yl-1-[3-((S)-4-hydroxy-6-aza-spiro[2.5]oct-6-yl)-propyl]-3-methyl-piperazin-2-one] | 0.508 |
| C[C@H]1C(=O)N(C[C@H](O)CN2CCC3(CC3)[C@H](O)C2)CCN1c1ccc(Cl)c(Cl)c1 [Example 101, (S)-4-(3,4-dichloro-phenyl)-1-[(R)-2-hydroxy-3-((S)-4-hydroxy-6-aza-spiro[2.5]oct-6-yl)-propyl]-3-methyl-piperazin-2-one] | 0.073 |
| O=C1CCN(c2cccc(OC(F)(F)F)c2)CCN1C(CO)CCCN1CCC2(CC2)[C@H](O)C1 (stereo partly drawn) [Example 32, 4-[(R,S)-4-((S)-4-Hydroxy-6-aza-spiro[2.5]oct-6-yl)-1-hydroxymethyl-butyl]-1-(3-trifluoromethoxy-phenyl)-[1,4]diazepan-5-one] | 0.14 |
| C[C@H]1C(=O)N(CCCN2CCC3(CC3)[C@H](O)C2)CCN1c1ccc(-c2ccccc2)cc1 [Example 80, (S)-4-Biphenyl-4-yl-1-[3-((S)-4-hydroxy-6-aza-spiro[2.5]oct-6-yl)-propyl]-3-methyl-piperazin-2-one] | 0.318 |
| C[C@H]1C(=O)N(CCCN2CCCCC2)CCN1c1cccc(C(F)(F)F)c1 [Example 52, (S)-3-Methyl-1-(3-piperidin-1-yl-propyl)-4-(3-trifluoromethyl-phenyl)-piperazin-2-one] | 0.13 |
| C[C@H]1C(=O)N(CCCN2CCC3(CC3)[C@H](O)C2)CCN1c1ccc(Cl)c(Cl)c1 [Example 74, (S)-4-(3,4-Dichloro-phenyl)-1-[3-((S)-4-hydroxy-6-aza-spiro[2.5]oct-6-yl)-propyl]-3-methyl-piperazin-2-one] | 0.005 |
| C[C@H]1C(=O)N(CCCN2CCC3(CC3)[C@H](O)C2)CCN1c1ccc(Cl)c(OC(F)(F)F)c1 [Example 84, (S)-4-(4-Chloro-3-trifluoromethoxy-phenyl)-1-[3-((S)-4-hydroxy-6-aza-spiro[2.5]oct-6-yl)-propyl]-3-methyl-piperazin-2-one] | 0.015 |
| CC1C(=O)N(CCCN2CCCCC2)CCN1c1ccc(Cl)c(C(F)(F)F)c1 (stereo not shown) [Example 70, 4-(4-Chloro-3-trifluoromethyl-phenyl)-3-methyl-1-(3-piperidin-1-yl-propyl)-piperazin-2-one] | 0.579 |
| O=C1CCN(c2cccc(C(F)(F)F)c2)CCN1[C@H](CO)CCN1CCC2(CC2)[C@H](O)C1 [Example 6, 4-[(S)-3-((S)-4-Hydroxy-6-aza-spiro[2.5]oct-6-yl)-1-hydroxymethyl-propyl]-1-(3-trifluoromethyl-phenyl)-[1,4]diazepan-5-one] | 0.01 |
| CN(CCO)C(=O)[C@H](CCN1CCC2(CC2)[C@H](O)C1)N1CCN(c2ccc(Cl)c(Cl)c2)CCC1=O [Example 61, (S)-2-[4-(3,4-Dichloro-phenyl)-7-oxo-[1,4]diazepan-1-yl]-4-((S)-4-hydroxy-6-aza-spiro[2.5]oct-6-yl)-N-(2-hydroxy-ethyl)-N-methyl-butyramide] | 0.076 |
| C[C@H]1C(=O)N(C[C@H](O)CCN2CCC3(CC3)[C@H](O)C2)CCN1c1ccc(Cl)c(Cl)c1 [Example 104, (S)-4-(3,4-Dichloro-phenyl)-1-[(R)-2-hydroxy-4-((S)-4-hydroxy-6-aza-spiro[2.5]oct-6-yl)-butyl]-3-methyl-piperazin-2-one] | 0.203 |
| CC1C(=O)N(CCCN2CCC3(CC3)[C@H](O)C2)CCN1c1cccc(I)c1 (stereo partly drawn) [Example 89, 1-[3-((S)-4-Hydroxy-6-aza-spiro[2.5]oct-6-yl)-propyl]-4-(3-iodo-phenyl)-3-methyl-piperazin-2-one] | 0.035 |
| COC(=O)C(CCN1CCC2(CC2)[C@H](O)C1)N1CCN(c2cccc(C(F)(F)F)c2)CCC1=O (stereo partly drawn) [Example 15, (R,S)-4-((S)-4-Hydroxy-6-aza-spiro[2.5]oct-6-yl)-2-[7-oxo-4-(3-trifluoromethyl-phenyl)-[1,4]diazepan-1-yl]-butyric acid methyl ester] | 0.06 |

Second part, the compound after the results:

| IC50 [µM] | SMILES |
| --- | --- |
| 0.013 | C[C@H]1C(=O)N(CCCCN2CCC3(CC3)[C@H](O)C2)CCN1c1cccc(OC(F)(F)F)c1 [Example 95, (S)-1-[4-((S)-4-Hydroxy-6-aza-spiro[2.5]oct-6-yl)-butyl]-3-methyl-4-(3-trifluoromethoxy-phenyl)-piperazin-2-one] |
| 0.01 | O=C1CCN(c2cccc(C(F)(F)F)c2)CCN1C(CO)CCN1CCC2(CC2)[C@H](O)C1 (stereo partly drawn) [Example 16, 4-[(R,S)-3-((S)-4-Hydroxy-6-aza-spiro[2.5]oct-6-yl)-1-hydroxymethyl-propyl]-1-(3-trifluoromethyl-phenyl)-[1,4]diazepan-5-one] |
| 0.306 | C[C@H]1C(=O)N(CCCN2CCCCC2)CCN1c1ccc(Cl)c(Cl)c1 [Example 72, (S)-4-(3,4-Dichloro-phenyl)-3-methyl-1-(3-piperidin-1-yl-propyl)-piperazin-2-one] |
| 0.06 | O=C1CCN(c2cccc(Cl)c2)CCN1[C@H](CO)CCN1CCC2(CC2)[C@H](O)C1 [Example 4, 1-(3-Chloro-phenyl)-4-[(S)-3-((S)-4-hydroxy-6-aza-spiro[2.5]oct-6-yl)-1-hydroxymethyl-propyl]-[1,4]diazepan-5-one] |
| 0.01 | O=C1CCN(c2ccc(Cl)c(Cl)c2)CCN1[C@H](CO)CCN1CCC2(CC2)[C@H](O)C1 [Example 2, 1-(3,4-Dichloro-phenyl)-4-[(S)-3-((S)-4-hydroxy-6-aza-spiro[2.5]oct-6-yl)-1-hydroxymethyl-propyl]-[1,4]diazepan-5-one] |
| 0.029 | C[C@H]1C(=O)N(CCCN2CCC3(CC3)[C@H](O)C2)CCN1c1ccc(F)c(Cl)c1 [Example 79, (S)-4-(3-Chloro-4-fluoro-phenyl)-1-[3-((S)-4-hydroxy-6-aza-spiro[2.5]oct-6-yl)-propyl]-3-methyl-piperazin-2-one] |
| 0.02 | CC1C(=O)N(CCCN2CCC3(CC3)[C@H](O)C2)CCN1c1cccc(OC(F)(F)F)c1 (stereo partly drawn) [Example 44, 1-[3-((S)-4-Hydroxy-6-aza-spiro[2.5]oct-6-yl)-propyl]-3-methyl-4-(3-trifluoromethoxy-phenyl)-piperazin-2-one] |
| 0.65 | C[C@H]1C[C@H](O)CN(CCC(C(=O)N(C)C)N2CCN(c3cccc(C(F)(F)F)c3)CCC2=O)C1 (stereo partly drawn) [Example 18, (R,S)-4-((3S,5S)-3-Hydroxy-5-methyl-piperidin-1-yl)-N,N-dimethyl-2-[7-oxo-4-(3-trifluoromethyl-phenyl)-[1,4]diazepan-1-yl]-butyramide] |
| 0.026 | C[C@H]1C(=O)N(CCCN2CCC3(CC3)[C@H](O)C2)CCN1c1ccc(C(F)(F)F)cc1 [Example 96, (S)-1-[3-((S)-4-Hydroxy-6-aza-spiro[2.5]oct-6-yl)-propyl]-3-methyl-4-(4-trifluoromethyl-phenyl)-piperazin-2-one] |
| 0.027 | C[C@H]1C(=O)N(C[C@@H](O)CCN2CCC3(CC3)[C@H](O)C2)CCN1c1ccc(Cl)c(Cl)c1 [Example 105, (S)-4-(3,4-Dichloro-phenyl)-1-[(S)-2-hydroxy-4-((S)-4-hydroxy-6-aza-spiro[2.5]oct-6-yl)-butyl]-3-methyl-piperazin-2-one] |
| 0.008 | C[C@H]1C(=O)N(CCCCN2CCC3(CC3)[C@H](O)C2)CCN1c1ccc(Cl)c(Cl)c1 [Example 94, (S)-4-(3,4-Dichloro-phenyl)-1-[4-((S)-4-hydroxy-6-aza-spiro[2.5]oct-6-yl)-butyl]-3-methyl-piperazin-2-one] |
| 0.1 | CN(C)C(=O)[C@H](CCN1CCC2(CC2)[C@H](O)C1)N1CCN(c2cccc(C(F)(F)F)c2)CCC1=O [Example 22, (S)-4-((S)-4-Hydroxy-6-aza-spiro[2.5]oct-6-yl)-N,N-dimethyl-2-[7-oxo-4-(3-trifluoromethyl-phenyl)-[1,4]diazepan-1-yl]-butyramide] |
| 0.4 | COCC(CCCN1CCC2(CC2)[C@H](O)C1)N1CCN(c2cccc(C(F)(F)F)c2)CCC1=O (stereo partly drawn) [Example 28, 4-[(R,S)-4-((S)-4-Hydroxy-6-aza-spiro[2.5]oct-6-yl)-t-methoxymethyl-butyl]-1-(3-trifluoromethyl-phenyl)-[1,4]diazepan-5-one] |
